According to paper PMC9609996, “SAR Study and Molecular Mechanism Investigation of Novel Naphthoquinone-furan-2-cyanoacryloyl Hybrids with Antitumor Activity” (Pharmaceutics, 2022):

Assays:
Type in all cases: cell-based, human
HCT116 = assay: CCK-8 anti-proliferation assay, HCT116; settings: Homo sapiens, HCT-116, 20 μM, mean ± SD, read-out: Inhibition Rate (%) at 20 μM HCT116
Method: (§1) Human cervical cancer HeLa, human prostate cancer PC3, human colonic carcinoma HCT116, human lung carcinoma A549, human breast cancer MDA-MB-231, mouse melanoma B16, human ovarian cancer SKOV3, human hepatoma Hep3B, and human liver L02 cells were purchased from the Cell Bank of Shanghai Institute of Biochemistry and Cell Biology, Chinese Academy of Sciences (Shanghai, China). The HeLa, A549, B16, PC3, MDA-MB-231, HCT116, and L02 cells were cultured in Dulbecco’s modified Eagle medium (DMEM, Gibco Inc.; Gaithersburg, MD, USA). All cultures were supplied with 10% fetal bovine serum (FBS; YHSM, Beijing, China), 100 IU/mL of penicillin, and 100 μg/mL of streptomycin, and cells were incubated at 37 °C in an atmosphere of 5% CO2.
(§2) A CCK-8 kit (MCE, USA) was used to perform a CCK-8 assay. Cells were plated and grown in the 96-well plates for the indicated period (48 h) in the incubator, followed by an incubation with the CCK-8 solutions for 1–4 h. Subsequently, the absorbance (450 nm) was measured by a microplate reader. The median inhibitory concentration (IC50) was determined from the dose–response curve. Experiments were performed in a triplicate.

PC3 = assay: CCK-8 anti-proliferation assay, PC3; settings: Homo sapiens, PC-3, 20 μM, mean ± SD, read-out: Inhibition Rate (%) at 20 μM PC3
Method: as §1, §2

A549 = assay: CCK-8 anti-proliferation assay, A549; settings: Homo sapiens, A549, 20 μM, mean ± SD, read-out: Inhibition Rate (%) at 20 μM A549
Method: as §1, §2

HeLa = assay: CCK-8 anti-proliferation assay, HeLa; settings: Homo sapiens, 20 μM, mean ± SD, read-out: Inhibition Rate (%) at 20 μM HeLa
Method: as §1, §2

Structure (SMILES) | inhibition at 20 µM (HCT116) [%] | inhibition at 20 µM (PC3) [%] | inhibition at 20 µM (A549) [%] | inhibition at 20 µM (HeLa) [%]
COc1cc(-c2ccc(/C=C(\C#N)C(=O)NC3CCN(Cc4ccccc4)CC3)o2)c(OC)c2ccccc12 [Compound 4a, (E)-N-(1-benzylpiperidin-4-yl)-2-cyano-3-(5-(1,4-dimethoxynaphthalen-2-yl)furan-2-yl)acrylamide] | 5.69 ± 0.23 | 15.5 ± 0.17 | 16.3 ± 0.22 | 13.6 ± 0.15
COc1cc(-c2ccc(/C=C(\C#N)C(=O)N3CCc4ccccc4C3)o2)c(OC)c2ccccc12 [Compound 4b, (E)-3-(5-(1,4-dimethoxynaphthalen-2-yl)furan-2-yl)-2-(1,2,3,4-tetrahydroisoquinoline-2-carbonyl)acrylonitrile] | 19.6 ± 0.65 | 3.88 ± 0.13 | 24.2 ± 0.31 | 11.71 ± 0.04
COc1cc(-c2ccc(/C=C(\C#N)C(=O)NCCc3cccs3)o2)c(OC)c2ccccc12 [Compound 4d, (E)-2-cyano-3-(5-(1,4-dimethoxynaphthalen-2-yl)furan-2-yl)-N-(2-(thiophen-2-yl)ethyl)acrylamide] | 10.8 ± 0.49 | 7.17 ± 0.31 | 21.58 ± 0.02 | 11.6 ± 0.79
COc1cc(-c2ccc(/C=C(\C#N)C(=O)N3CC4CCCCC4C3)o2)c(OC)c2ccccc12 (stereo not drawn) [Compound 4f, (E)-3-(5-(1,4-dimethoxynaphthalen-2-yl)furan-2-yl)-2-(octahydro-1H-isoindole-2-carbonyl)acrylonitrile] | 43.7 ± 0.84 | 11.8 ± 0.79 | – | –
COc1cc(-c2ccc(/C=C(\C#N)C(=O)NCc3cccc(C(F)(F)F)c3)o2)c(OC)c2ccccc12 [Compound 4g, (E)-2-cyano-3-(5-(1,4-dimethoxynaphthalen-2-yl)furan-2-yl)-N-(3-(trifluoromethyl)benzyl)acrylamide] | 7.69 ± 0.02 | 15.38 ± 0.01 | 4.87 ± 0.3 | 16.1 ± 0.17
COc1cc(-c2ccc(/C=C(\C#N)C(=O)NCCN3CCCC3)o2)c(OC)c2ccccc12 [Compound 4i, (E)-2-cyano-3-(5-(1,4-dimethoxynaphthalen-2-yl)furan-2-yl)-N-(2-(pyrrolidin-1-yl)ethyl)acrylamide] | 29.05 ± 0.08 | 12.29 ± 0.12 | 13.9 ± 0.87 | 35 ± 0.41
N#C/C(=C\c1ccc(C2=CC(=O)c3ccccc3C2=O)o1)C(=O)NC1CCN(Cc2ccccc2)CC1 [Compound 5a, (E)-N-(1-benzylpiperidin-4-yl)-2-cyano-3-(5-(1,4-dioxo-1,4-dihydronaphthalen-2-yl)furan-2-yl)acrylamide] | 8.36 ± 0.26 | 3.7 ± 0.19 | 13.3 ± 0.17 | 10.4 ± 0.41
N#C/C(=C\c1ccc(C2=CC(=O)c3ccccc3C2=O)o1)C(=O)N1CCc2ccccc2C1 [Compound 5b, (E)-3-(5-(1,4-dioxo-1,4-dihydronaphthalen-2-yl)furan-2-yl)-2-(1,2,3,4-tetrahydroisoquinoline-2-carbonyl)acrylonitrile] | 8.83 ± 0.1 | 17.8 ± 0.33 | 18.4 ± 0.82 | 20.5 ± 0.28
N#C/C(=C\c1ccc(C2=CC(=O)c3ccccc3C2=O)o1)C(=O)NCCc1cccs1 [Compound 5d, (E)-2-cyano-3-(5-(1,4-dioxo-1,4-dihydronaphthalen-2-yl)furan-2-yl)-N-(2-(thiophen-2-yl)ethyl)acrylamide] | 26.8 ± 0.94 | 15.5 ± 0.2 | 17.2 ± 0.35 | 5.61 ± 0.24
CC1(C)CC(NC(=O)/C(C#N)=C/c2ccc(C3=CC(=O)c4ccccc4C3=O)o2)CC(C)(C)N1 [Compound 5e, (E)-2-cyano-3-(5-(1,4-dioxo-1,4-dihydronaphthalen-2-yl)furan-2-yl)-N-(2,2,6,6-tetramethylpiperidin-4-yl)acrylamide] | 5.97 ± 95 | 19.3 ± 0.28 | 19.8 ± 0.32 | 29.73 ± 0.07
N#C/C(=C\c1ccc(C2=CC(=O)c3ccccc3C2=O)o1)C(=O)N1CC2CCCCC2C1 (stereo not drawn) [Compound 5f, (E)-3-(5-(1,4-dioxo-1,4-dihydronaphthalen-2-yl)furan-2-yl)-2-(octahydro-1H-isoindole-2-carbonyl)acrylonitrile] | 3.41 ± 0.26 | 11.13 ± 0.03 | 13.9 ± 0.14 | 1.9 ± 0.72
COC(=O)c1ccc(-c2cc(OC)c3ccccc3c2OC)o1 [Compound 6, Methyl 5-(1,4-dimethoxynaphthalen-2-yl)furan-2-carboxylate] | 16.78 ± 0.07 | 21.6 ± 0.83 | 21.3 ± 0.45 | 27 ± 0.32
COC(=O)c1ccc(C2=CC(=O)c3ccccc3C2=O)o1 [Compound 6a, Methyl 5-(1,4-dioxo-1,4-dihydronaphthalen-2-yl)furan-2-carboxylate] | 17.67 ± 0.06 | 6.93 ± 0.79 | 2.15 ± 0.37 | 26.1 ± 0.66
COc1cc(-c2ccc(C(=O)NC3CCN(Cc4ccccc4)CC3)o2)c(OC)c2ccccc12 [Compound 8a, N-(1-benzylpiperidin-4-yl)-5-(1,4-dimethoxynaphthalen-2-yl)furan-2-carboxamide] | 12.4 ± 0.15 | 15.5 ± 0.29 | 24.1 ± 0.35 | 20.86 ± 0.18
COc1cc(-c2ccc(C(=O)NC(C)c3ccccc3)o2)c(OC)c2ccccc12 (stereo not drawn) [Compound 8b, 5-(1,4-Dimethoxynaphthalen-2-yl)-N-(1-phenylethyl)furan-2-carboxamide] | 2.17 ± 0.02 | 24.99 ± 0.19 | 7.87 ± 0.11 | 19.33 ± 0.18
COc1cc(-c2ccc(C(=O)NCCC(=O)N3CCOCC3)o2)c(OC)c2ccccc12 [Compound 8c, 5-(1,4-Dimethoxynaphthalen-2-yl)-N-(3-morpholino-3-oxopropyl)furan-2-carboxamide] | 4.73 ± 0.47 | 4.65 ± 0.56 | 14.1 ± 0.32 | –
COc1cc(-c2ccc(C(=O)NCc3cc(C(F)(F)F)ccc3F)o2)c(OC)c2ccccc12 [Compound 8d, 5-(1,4-Dimethoxynaphthalen-2-yl)-N-(2-fluoro-5-(trifluoromethyl)benzyl)furan-2-carboxamide] | 14.5 ± 0.24 | 22.45 ± 0.05 | 19.35 ± 0.07 | 22.7 ± 0.27
COc1cc(-c2ccc(C(=O)Nc3cccc(N4CCN(C)CC4)c3)o2)c(OC)c2ccccc12 [Compound 8e, 5-(1,4-Dimethoxynaphthalen-2-yl)-N-(3-(4-methylpiperazin-1-yl)phenyl)furan-2-carboxamide] | 7.7 ± 0.27 | 11.5 ± 0.17 | 14.5 ± 0.25 | 40.58 ± 0.36
COc1cc(-c2ccc(C(=O)NC3CCC(F)(F)CC3)o2)c(OC)c2ccccc12 [Compound 8f, N-(4,4-difluorocyclohexyl)-5-(1,4-dimethoxynaphthalen-2-yl)furan-2-carboxamide] | 27.19 ± 0.15 | 17.72 ± 0.12 | 28.3 ± 0.33 | 30.1 ± 0.39
COc1cc(-c2ccc(C(=O)NCCCn3ccnc3)o2)c(OC)c2ccccc12 [Compound 8g, N-(3-(1H-imidazol-1-yl)propyl)-5-(1,4-dimethoxynaphthalen-2-yl)furan-2-carboxamide] | 27.46 ± 0.16 | 7.59 ± 0.72 | 26.89 ± 0.16 | 18.28 ± 0.03
COc1cc(-c2ccc(C(=O)Nc3ccc(CN4CCN(C)CC4)c(C(F)(F)F)c3)o2)c(OC)c2ccccc12 [Compound 8h, 5-(1,4-Dimethoxynaphthalen-2-yl)-N-(4-((4-methylpiperazin-1-yl)methyl)-3-(trifluoromethyl)phenyl)furan-2-carboxamide] | 19.6 ± 0.34 | 16.5 ± 0.97 | 21.6 ± 0.39 | 28.47 ± 0.1
O=C(NC1CCN(Cc2ccccc2)CC1)c1ccc(C2=CC(=O)c3ccccc3C2=O)o1 [Compound 9a, N-(1-benzylpiperidin-4-yl)-5-(1,4-dioxo-1,4-dihydronaphthalen-2-yl)furan-2-carboxamide] | 33.71 ± 0.13 | 2.39 ± 0.09 | 20.7 ± 0.49 | 42.87 ± 0.22
CC(NC(=O)c1ccc(C2=CC(=O)c3ccccc3C2=O)o1)c1ccccc1 (stereo not drawn) [Compound 9b, 5-(1,4-Dioxo-1,4-dihydronaphthalen-2-yl)-N-(1-phenylethyl)furan-2-carboxamide] | 7.22 ± 0.34 | 12.82 ± 0.01 | 8.8 ± 0.04 | 18.65 ± 0.16
O=C(NCCC(=O)N1CCOCC1)c1ccc(C2=CC(=O)c3ccccc3C2=O)o1 [Compound 9c, 5-(1,4-Dioxo-1,4-dihydronaphthalen-2-yl)-N-(3-morpholino-3-oxopropyl)furan-2-carboxamide] | 37.21 ± 0.08 | 1.45 ± 0.86 | 15.1 ± 0.31 | 5.91 ± 0.29
